Holding throughout (type): cell-based
In assay [1] the test system is breast cancer cells (MDA-MB-231). The assay can be described thus: In vitro potency (CellTiter-Glo, 96 h), MDA-MB-231. The note with it: Homo sapiens, MDA-MB-231, 96 h, CPT free drugs, Table 24; CellTiter-Glo after 96 h exposure; read-out: IC50 (nmol/L) MDAMB231. An outline of the steps:
(§1)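 Four-day continuous exposure at 37 °C to serially diluted ADC or free camptothecin payload, in RPMI 1640 with 20% FBS after 24 h pre-plating. Luminescent signal gave IC50 (ng/mL; nmol/L).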

In the next assay the test system is melanoma cells (A2058). The assay can be described thus: In vitro potency (CellTiter-Glo, 96 h), A2058. The note with it: Homo sapiens, A2058, 96 h, CPT free drugs, Table 24; CellTiter-Glo after 96 h exposure; read-out: IC50 (nmol/L) A2058. In a few lines:
(§2)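 Authenticated lines (STR), used within 2 months of resuscitation, were seeded 24 h before treatment. Exposure to ADC dilutions lasted 96 h at 37 °C in RPMI 1640 with 20% FBS; viability was quantified luminescently.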

Assay [2] relates to renal carcinoma cells (786-O). The assay can be described thus: In vitro potency (CellTiter-Glo, 96 h), 786-O. The note with it: Homo sapiens, 786-0, 96 h, CPT free drugs, Table 24; CellTiter-Glo after 96 h exposure; read-out: IC50 (nmol/L) 786-O. An outline of the steps: as §1
In general terms: ATP-based viability assays read luminescence as a measure of living cells.

Assay [3] relates to anaplastic large cell lymphoma cells (DEL). The assay can be described thus: In vitro potency (CellTiter-Glo, 96 h), DEL. The note with it: CPT free drugs, Table 24, CellTiter-Glo after 96 h exposure, read-out: IC50 (nmol/L) DEL. An outline of the steps: as §1
For the next assay, the system named is Ls174T cells. The assay can be described thus: In vitro potency (CellTiter-Glo, 96 h), Ls174T. The note with it: Homo sapiens, LS174T; CPT free drugs, Table 24; CellTiter-Glo after 96 h exposure; read-out: IC50 (nmol/L) Ls174T. An outline of the steps:
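Antibody-drug conjugates, prepared as dilution series in culture medium, were added to cells seeded a day earlier in RPMI 1640 supplemented with 20% FBS. After four days at 37 °C, luminescence measured growth inhibition.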

For assay [4], the system named is Hodgkin's lymphoma cells (L540cy). The assay can be described thus: In vitro potency (CellTiter-Glo, 96 h), L540cy. The note with it: CPT free drugs, Table 24, CellTiter-Glo after 96 h exposure, read-out: IC50 (nmol/L) L540cy. In a few lines:
as §1

For assay [5], the system named is acute myeloid leukemia cells (MOLM-13). Briefly: In vitro potency (CellTiter-Glo, 96 h), MOLM-13. The note with it: Homo sapiens, MOLM-13, 96 h, CPT free drugs, Table 24; CellTiter-Glo after 96 h exposure; read-out: IC50 (nmol/L) MOLM-13. An outline of the steps:
(§3)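 IC50 (ng/mL or nmol/L) derived from CellTiter-Glo luminescence after 96 h exposure at 37 °C to serial dilutions of ADC or CPT free drug. Log-phase cells had been plated 24 h beforehand in RPMI 1640 containing 20% FBS.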

In assay [6] the test system is non-small-cell lung cancer cells (Calu1). Briefly: In vitro potency (CellTiter-Glo, 96 h), Calu1. The note with it: Homo sapiens, Calu-1, 96 h, CPT free drugs, Table 24; CellTiter-Glo after 96 h exposure; read-out: IC50 (nmol/L) Calu1. In a few lines:
as §2

In assay [7] the test system is pancreatic cancer cells (BxPC3). The assay can be described thus: In vitro potency (CellTiter-Glo, 96 h), BxPC3. The note with it: Homo sapiens, BXPC-3, 96 h, CPT free drugs, Table 24; CellTiter-Glo after 96 h exposure; read-out: IC50 (nmol/L) BxPC3. In a few lines: as §3
The subject of assay [8] is B-lymphocyte cancer cells (SU-DHL4). Briefly: In vitro potency (CellTiter-Glo, 96 h), SU-DHL-4. The note with it: Homo sapiens, SU-DHL-4, 96 h, CPT free drugs, Table 24; CellTiter-Glo after 96 h exposure; read-out: IC50 (nmol/L) SU-DHL-4. An outline of the steps:
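RPMI 1640/20% FBS cultures, log phase, plated 24 h → ADC titration → 4 d, 37 °C → luminescence → IC50, ng/mL.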

In assay [9] the test system is anaplastic large cell lymphoma cells (DELBVR). The assay can be described thus: In vitro potency (CellTiter-Glo, 96 h), DELBVR. The note with it: CPT free drugs, Table 24, CellTiter-Glo after 96 h exposure, read-out: IC50 (nmol/L) DELBVR. In a few lines: as §1
Assay [10] has as its system anaplastic large cell lymphoma cells (Karpas299). Briefly: In vitro potency (CellTiter-Glo, 96 h), Karpas299. The note with it: Homo sapiens, KARPAS-299, 96 h, CPT free drugs, Table 24; CellTiter-Glo after 96 h exposure; read-out: IC50 (nmol/L) Karpas299. An outline of the steps:
as §1

Turning to `CC[C@@]1(O)C(=O)OCc2c1cc1n(c2=O)Cc2c-1nc1ccc(Cl)cc1c2CN` [Compound 2c], the IC50 in assay [1] was determined as 6 nmol/L; with melanoma cells (A2058), 3 nmol/L; in [2] it was 6 nmol/L; in assay [3] it was 1.7 nmol/L; in the assay with Ls174T cells it was 3.9 nmol/L; in assay [4] it was 5 nmol/L. Also, the IC50 in assay [5] was 21 nmol/L; in assay [6], 45 nmol/L; in [7], 19 nmol/L; in [8], 3 nmol/L; in [9], 3.3 nmol/L; in assay [10], 8 nmol/L.
For `CC[C@@]1(O)C(=O)OCc2c1cc1n(c2=O)Cc2c-1nc1ccc(OC)cc1c2CN` [Compound 2d], the IC50 in assay [1] amounted to 4 nmol/L; with melanoma cells (A2058), 2 nmol/L; in assay [2], 5 nmol/L; in [3] it was 1 nmol/L; in the assay on Ls174T cells it was 3.7 nmol/L; in assay [4], 2 nmol/L. For the same molecule, the IC50 was determined as 25 nmol/L in [5]; 43 nmol/L in [6]; 12 nmol/L in [7]; 4 nmol/L in assay [8]; 1 nmol/L in [9]; 7 nmol/L in [10].
Turning to `CC[C@@]1(O)C(=O)OCc2c1cc1n(c2=O)Cc2c-1nc1ccc(Br)cc1c2CN` [Compound 2e], the IC50 in [1] was found to be 7.1 nmol/L; in the assay on melanoma cells (A2058), 5 nmol/L; in assay [2], 4.2 nmol/L; in assay [3], 1 nmol/L; in the assay on Ls174T cells it was 4.5 nmol/L; in assay [4], 4.3 nmol/L. The IC50 in assay [5] came out at 56 nmol/L; in [6], 55 nmol/L; in [7], 30.7 nmol/L; in assay [8], 5.7 nmol/L; in assay [9], 4 nmol/L; in [10], 10.7 nmol/L.
Turning to `CC[C@@]1(O)C(=O)OCc2c1cc1n(c2=O)Cc2c-1nc1cc(F)ccc1c2CN` [Compound 2f], the IC50 in assay [1] amounted to 4 nmol/L; in the assay with melanoma cells (A2058), 2 nmol/L; in assay [2], 6 nmol/L; in assay [3] it was 1 nmol/L; in the assay on Ls174T cells it was 3.9 nmol/L; in [4], 3 nmol/L. The IC50 was 11 nmol/L in [5]; 40 nmol/L in assay [6]; 9 nmol/L in [7]; 4 nmol/L in assay [8]; 1.2 nmol/L in assay [9]; 6 nmol/L in assay [10].
Regarding `CC[C@@]1(O)C(=O)OCc2c1cc1n(c2=O)Cc2c-1nc1ccc(C(F)(F)F)cc1c2CN` [Compound 2g], the IC50 in assay [1] turned out to be 79 nmol/L; with melanoma cells (A2058) it was 37 nmol/L; in assay [2] it was 102 nmol/L; in assay [3] it was 17.6 nmol/L; in the assay on Ls174T cells it was 65.3 nmol/L; in assay [4] it was 62 nmol/L. Moreover, the IC50 in assay [5] was 598 nmol/L; in assay [6], 755 nmol/L; in assay [7], 258 nmol/L; in assay [8] it was 60 nmol/L; in assay [9] it was 33.5 nmol/L; in assay [10] it was 221 nmol/L.
As to `CC[C@@]1(O)C(=O)OCc2c1cc1n(c2=O)Cc2c-1nc1cc(F)c(C)cc1c2CN` [Compound 2h], the IC50 in assay [1] is 2 nmol/L; with melanoma cells (A2058) it was 1 nmol/L; in assay [2], 3 nmol/L; in assay [3] it was 0.5 nmol/L; with Ls174T cells, 1.7 nmol/L; in assay [4] it was 3 nmol/L. The IC50 came to 14 nmol/L in [5]; 16 nmol/L in assay [6]; 8 nmol/L in [7]; 2 nmol/L in assay [8]; 0.8 nmol/L in assay [9]; 3 nmol/L in [10].
Consider `CC[C@@]1(O)C(=O)OCc2c1cc1n(c2=O)Cc2c-1nc1cc(F)c(OC)cc1c2CN` [Compound 2i], for which the IC50 in assay [1] stood at 4 nmol/L; in the assay on melanoma cells (A2058), 2 nmol/L; in [2], 5 nmol/L; in [3], 1 nmol/L; in the assay with Ls174T cells it was 3.4 nmol/L; in [4], 2 nmol/L. Also, the IC50 in assay [5] is 13 nmol/L; in [6], 31 nmol/L; in [7], 10 nmol/L; in assay [8], 4 nmol/L; in assay [9], 1 nmol/L; in assay [10] it was 5 nmol/L.

The record behind these values is patent US20240207427A1, “SELECTIVE DRUG RELEASE FROM INTERNALIZED CONJUGATES OF BIOLOGICALLY ACTIVE COMPOUNDS” (priority 2021, published 2024).
